Test results reported in patent US5210193A, “Piperazine derivatives” (American Cyanamid Company, priority 1990, dated 1993).
≈ marks a conversion by molar mass, not a printed value.

Experiments:
Test in all cases: in vitro antibacterial MIC, agar plate dilution
Format in all cases: cell-based
[1] = tested on: Staphylococcus Spp saprophiticus VGH 84-50; settings: 18 hours, 35° C., read-out: MIC
Method in brief: (§1)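 Agar plate dilution on Mueller-Hinton agar, inoculum approximately 10^4 CFU per organism applied with a Steers replicator. MIC (mcg/ml) is the lowest compound concentration inhibiting visible growth after 18 hours at 35° C.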

[2] = tested on: Morganella morganii VGH 84-11; settings: VGH8411, 18 hours, 35° C., read-out: MIC
Method in brief: as §1

[3] = tested on: Staphylococcus epidermidis CMC 83-135; settings: CMC83135, 18 hours, 35° C., read-out: MIC
Method in brief: as §1

[4] = tested on: Klebsiella pneumoniae MOR 84-4; settings: Klebsiella pneumoniae, MOR844, 18 h, 35° C., read-out: MIC
Method in brief: as §1

[5] = tested on: Staphylococcus aureus ATTC 29213; settings: Staphylococcus aureus, ATTC29213, 18 h, 35° C., read-out: MIC
Method in brief: as §1

[6] = tested on: Serratia marcescens F 0-35; settings: Serratia marcescens, F035, 18 h, 35° C., read-out: MIC
Method in brief: as §1

[7] = tested on: Pseudomonas aeruginosa LL-1244; settings: Pseudomonas aeruginosa, LL1244, 18 h, 35° C., read-out: MIC
Method in brief: as §1

[8] = tested on: Enterobacter aerogenes VGH 84-36; settings: Klebsiella aerogenes, VGH8436, 18 hours, 35° C., read-out: MIC
Method in brief: as §1

[9] = tested on: Escherichia coli CMC 84-11; settings: Escherichia coli, CMC8411, 18 h, 35° C., read-out: MIC
Method in brief: as §1

[10] = tested on: Escherichia coli CMC 84-16; settings: Escherichia coli, CMC8416, 18 h, 35° C., read-out: MIC
Method in brief: as §1

[11] = tested on: Staphylococcus aureus CMC 83-128; settings: CMC83128, 18 hours, 35° C., read-out: MIC
Method in brief: as §1

[12] = tested on: Serratia marcescens K 84-18; settings: Serratia marcescens, K8418, 18 h, 35° C., read-out: MIC
Method in brief: as §1

[13] = tested on: Staphylococcus aureus VGH 84-45; settings: Staphylococcus aureus, VGH8445, 18 h, 35° C., read-out: MIC
Method in brief: as §1

[14] = tested on: Enterobacter cloacae VGH 84-37; settings: Enterobacter cloacae, VGH8437, 18 h, 35° C., read-out: MIC
Method in brief: as §1

[15] = tested on: Morganella morganii CMC 84-37; settings: Morganella morganii, CMC8437, 18 h, 35° C., read-out: MIC
Method in brief: as §1

[16] = tested on: Streptococcus faecalis ATTC 29212; settings: Enterococcus faecalis, ATTC29212, 18 hours, 35° C., read-out: MIC
Method in brief: as §1

[17] = tested on: Staphylococcus aureus CMC 83-127; settings: Staphylococcus aureus, CMC83127, 18 h, 35° C., read-out: MIC
Method in brief: as §1

[18] = tested on: Escherichia coli ATCC 25922; settings: Escherichia coli, ATCC25922, 18 h, 35° C., read-out: MIC
Method in brief: as §1

[19] = tested on: Klebsiella oxytoca MOR 84-28; settings: MOR8428, 18 hours, 35° C.
Method in brief: as §1

[20] = tested on: Pseudomonas aeruginosa VGH 84-4; settings: Pseudomonas aeruginosa, VGH844, 18 h, 35° C., read-out: MIC
Method in brief: as §1

[21] = tested on: Staphylococcus aureus Smith; settings: Staphylococcus aureus, 18 h, 35° C., read-out: MIC
Method in brief: as §1

Escherichia coli NAR 311 = settings: NAR311, 18 hours, 35° C., read-out: MIC
Method in brief: as §1

[22] = tested on: Streptococcus faecalis VGH 84-65; settings: Enterococcus faecalis, VGH8465, 18 h, 35° C., read-out: MIC
Method in brief: as §1

[23] = tested on: Enterobacter cloacae K 84-10; settings: Enterobacter cloacae, K8410, 18 h, 35° C., read-out: MIC
Method in brief: as §1

[24] = tested on: Proteus rettgeri CMC 84-41; settings: Providencia rettgeri, CMC8441, 18 h, 35° C., read-out: MIC
Method in brief: as §1

Klebsiella pneumoniae AD = settings: Klebsiella pneumoniae, 18 h, 35° C., read-out: MIC
Method in brief: as §1

[25] = tested on: Staphylococcus epidermidis IO 83-58; settings: IO8358, 18 hours, 35° C., read-out: MIC
Method in brief: as §1

[26] = tested on: Escherichia coli PRNT 311; settings: PRNT311, 18 hours, 35° C., read-out: MIC
Method in brief: as §1

[27] = tested on: Acinetobacter calcoaceticus MOR 84-43; settings: MOR8443, 18 hours, 35° C., read-out: MIC
Method in brief: as §1

[28] = tested on: Staphylococcus aureus VGH 84-46; settings: Staphylococcus aureus, VGH8446, 18 h, 35° C., read-out: MIC
Method in brief: as §1

[29] = tested on: Staphylococcus epidermidis VGH 84-40; settings: VGH8440, 18 hours, 35° C., read-out: MIC
Method in brief: as §1

MIC [1] [µg/mL] | MIC [2] [µg/mL] | MIC [3] [µg/mL] | MIC [4] [µg/mL] | MIC [5] [µg/mL] | MIC [6] [µg/mL] | MIC [7] [µg/mL] | MIC [8] [µg/mL] | MIC [9] [µg/mL] | MIC [10] [µg/mL] | MIC [11] [µg/mL] | MIC [12] [µg/mL] | MIC [13] [µg/mL] | MIC [14] [µg/mL] | MIC [15] [µg/mL] | MIC [16] [µg/mL] | MIC [17] [µg/mL] | MIC [18] [µg/mL] | MIC [19] [µg/mL] | MIC [20] [µg/mL] | SMILES | further results
4 (≈ 10.7 µM) | 2 (≈ 5.37 µM) | 0.5 (≈ 1.34 µM) | 4 (≈ 10.7 µM) | 0.5 (≈ 1.34 µM) | 2 (≈ 5.37 µM) | 64 (≈ 172 µM) | 8 (≈ 21.5 µM) | 1 (≈ 2.69 µM) | 2 (≈ 5.37 µM) | 1 (≈ 2.69 µM) | 2 (≈ 5.37 µM) | 0.25 (≈ 0.671 µM) | 4 (≈ 10.7 µM) | 4 (≈ 10.7 µM) | 8 (≈ 21.5 µM) | 0.5 (≈ 1.34 µM) | 1 (≈ 2.69 µM) | 2 (≈ 5.37 µM) | 32 (≈ 85.9 µM) | CCn1cc(C(=O)O)c(=O)c2c(F)c(F)c(N3CCSCC3)c(F)c21 [Example 89, 1-Ethyl-5,6,8-trifluoro-1,4-dihydro-4-oxo-7-(4-thiomorpholinyl)-3-quinolinecarboxylic acid] | MIC [21]: 0.25 µg/mL (≈ 0.671 µM); MIC (Escherichia coli NAR 311): 128 µg/mL (≈ 344 µM); MIC [22]: 32 µg/mL (≈ 85.9 µM); MIC [23]: 2 µg/mL (≈ 5.37 µM); MIC [24]: 4 µg/mL (≈ 10.7 µM); MIC (Klebsiella pneumoniae AD): 2 µg/mL (≈ 5.37 µM); MIC [25]: 0.5 µg/mL (≈ 1.34 µM); MIC [26]: 2 µg/mL (≈ 5.37 µM); MIC [27]: 2 µg/mL (≈ 5.37 µM)
> 256 | > 256 | 64 (≈ 132 µM) | > 256 | 64 (≈ 132 µM) | > 256 | > 256 | > 256 | > 256 | > 256 | 16 (≈ 33.1 µM) | > 256 | 16 (≈ 33.1 µM) | > 256 | > 256 | > 256 | 8 (≈ 16.5 µM) | > 256 | > 256 | > 256 | CCn1cc(C(=O)O)c(=O)c2cc(F)c(N3CCN(C)C(c4cc5cc(Cl)ccc5o4)C3)cc21 (stereo not shown) [Example 55, 7-[3-(5-Chloro-2-benzofuranyl)-4-methyl-1-piperazinyl]-1-ethyl-6-fluoro-1,4-dihydro-4-oxo-3-quinolinecarboxylic acid] | MIC [28]: 32 µg/mL (≈ 66.1 µM); MIC [21]: 16 µg/mL (≈ 33.1 µM); MIC (Escherichia coli NAR 311): > 256 µg/mL; MIC [22]: > 256 µg/mL; MIC [23]: > 256 µg/mL; MIC [24]: > 256 µg/mL; MIC (Klebsiella pneumoniae AD): > 256 µg/mL; MIC [25]: 128 µg/mL (≈ 265 µM); MIC [26]: > 256 µg/mL; MIC [29]: 32 µg/mL (≈ 66.1 µM); MIC [27]: > 256 µg/mL
4 | 32 | 2 | 32 | 16 | 64 | > 128 | 16 | 8 | 4 | 2 | 128 | 16 | 32 | 32 | 32 | 1 | 16 | > 128 | > 128 | CCn1cc(C(=O)O)c(=O)c2cc(F)c(N3CCNC(CNC)C3)cc21.Cl.Cl (stereo not shown) [Example 53, 1-Ethyl-6-fluoro-1,4-dihydro-7-[3-[(methylamino)methyl]-1-piperazinyl]-4-oxo-3-quinolinecarboxylic acid, dihydrochloride] | MIC [28]: 8 µg/mL; MIC [21]: 1 µg/mL; MIC (Escherichia coli NAR 311): > 128 µg/mL; MIC [22]: 32 µg/mL; MIC [23]: 8 µg/mL; MIC [24]: 32 µg/mL; MIC (Klebsiella pneumoniae AD): 64 µg/mL; MIC [25]: 4 µg/mL; MIC [26]: 16 µg/mL; MIC [29]: 4 µg/mL; MIC [27]: > 128 µg/mL
